Source: patent publication US20220259164A1, “USE OF AMINOTHIOL COMPOUNDS AS CEREBRAL NERVE OR HEART PROTECTIVE AGENT” (SHANGHAI KECHOW PHARMA, INC., priority 2019, published 2022)
“And” between values parts separate entries of the source, which are not always exact repeats. Identical values can stand only once.

Legend:
[1] = tested on: SD rat cerebral ischemia reperfusion injury model (MCAO); experiment: Neurobehavioral evaluation (5-point Longa/Bederson score) in rat ischemic stroke model (MCAO); format: in vivo; parameters: key to Neurological function score After modeling: Longa/Bederson 5-point scale (0-4); higher = more severe deficit; conditions: for Neurological function score After modeling: individual rats
From the text: Healthy male SPF grade SD rats (body weight 250-300 g) were selected. […] (2) A midline neck incision was made to expose the right common carotid artery, internal carotid artery and external carotid artery. A 6-0 silk thread was used to ligate the distal end of the external carotid artery at 4 mm from the bifurcation of the common carotid artery, another 6-0 silk thread was inserted at the external carotid artery, and a slipknot was tied near the bifurcation of the common carotid artery. (3) An arterial clamp was used to clamp the common carotid artery. […] (4) The thread embolism was removed 90 min after ischemia, the proximal end of the external artery was ligated with a 6-0 silk thread, the neck wound was sutured with a 3-0 silk thread, the wound was disinfected with povidone iodine, the rats were placed on a heating pad, and after being awake, they were placed in a constant temperature rearing box for rearing. […] The experimental animals were scored for signs of neurological function deficit before and after modeling. The scoring standard was given by reference to the 5-point system of Longa and Bederson. The scoring was performed 24 h after the animals were awake from anesthesia. The higher the score, the more severe the behavioral disorder of the animals. 0 point: No nerve damage symptoms […] Inability to fully extend the contralateral front paw […] Turning in a circle to the opposite side […] Falling over to the opposite side 4 points: Inability to walk spontaneously, and loss of consciousness In a manner same as in Example 1, experimental animals were selected, except that the experiment was divided into seven groups (i.e., groups […], and G, among which groups C, D, and E were given different dosages of administration from Example 1, group F was given edaravone, and group G was given amifostine).

[2] = tested on: SD rat cerebral ischemia reperfusion injury model (MCAO); experiment: TTC staining and cerebral infarction area in rat ischemic stroke model (MCAO); format: in vivo; conditions: for Cerebral infarction area: individual rats
Experimental: Healthy male SPF grade SD rats (body weight 250-300 g) were selected. (1) The rats were anesthetized, the skin on the neck was prepared, and the body temperature was maintained at 37±0.5° C. (2) A midline neck incision was made to expose the right common carotid artery, internal carotid artery and external carotid artery. A 6-0 silk thread was used to ligate the distal end of the external carotid artery at 4 mm from the bifurcation of the common carotid artery, another 6-0 silk thread was inserted at the external carotid artery, and a slipknot was tied near the bifurcation of the common carotid artery. (3) An arterial clamp was used to clamp the common carotid artery. A small opening was cut on the external carotid artery at 3 mm from the bifurcation of the common carotid artery, and a 0.33 mm diameter nylon thread with a treated head end was inserted through the small opening, entered the internal carotid artery, and was inserted inward to the middle cerebral artery, wherein the insertion depth of the nylon thread was about 16±1 mm from the bifurcation of the common carotid artery. (4) The thread embolism was removed 90 min after ischemia, the proximal end of the external artery was ligated with a 6-0 silk thread, the neck wound was sutured with a 3-0 silk thread, the wound was disinfected with povidone iodine, the rats were placed on a heating pad, and after being awake, they were placed in a constant temperature rearing box for rearing. […] After the rats were anesthetized, the brain tissues were taken from the rats, placed in a refrigerator and frozen at -20° C. for 30 min. 1% TTC (W/V) was prepared with PBS and placed in a water bath at 37° C. until the TTC was dissolved, and the frozen brain tissue was sliced, placed in 10 ml of the TTC solution and incubated at 37° C. for 10 min. The brain slices were turned from time to time to make the tissue evenly stained. Normal brain tissue was bright red after staining, whereas the infarction region was pale white in color or light white in a black and white image. In addition, a software was used to measure and statistically analyze the infarction area. In a manner same as in Example 1, experimental animals were selected, except that the experiment was divided into seven groups (i.e., groups […], and G, among which groups C, D, and E were given different dosages of administration from Example 1, group F was given edaravone, and group G was given amifostine).

[3] = tested on: rat myocardial infarction model (coronary ligation 30 min, reperfusion); experiment: Myocardial infarction model: myocardial infarction range (TTC staining); format: in vivo; conditions: isosorbide mononitrate injection i.v. 1 mg/kg
Experimental: (§1) 1. The rats were grouped and administered according to the following methods (2) Compound B (i.v.) at 100 mg/kg (3) Compound A (i.v.) at 100 mg/kg (4) Compound A (oral) at 500 mg/kg (5) Isosorbide mononitrate injection (i.v.) at 1 mg/kg (equivalent to clinical equivalent dose). There were 10 rats in each group, and the rats were administered intravenously immediately after 30 min of ischemia and reperfusion, i.v. 10% 1 min+i.v. drip 90% 30 min. The administration volume was 2 ml/rat. Compound A (oral) at 500 mg/kg was administered intragastrically 2 h after reperfusion when the animal was awake, and the administration volume was 10 ml/kg. Note: Compounds A and B used in this example were in the form of hydrochloride salts thereof. Given intraperitoneal injection of 3% sodium pentobarbital at 60 mg/kg for general anesthesia, the rats were fixed on an operating table in the supine position. The surgical field of the anterolateral chest was depilated and routinely disinfected. The skin and muscular layer were cut open, purse-string suture was performed on the muscular layer, the chest was opened on the left at the fourth intercostal space, and the heart was pulled out with a ring-shaped retractor. At the position of the anterior descending coronary artery 3-4 mm below the left atrial appendage, a 6/0 damage-free silk thread was threaded, and a nylon thread with a diameter of 1.6 mm was juxtaposed and ligated together with the anterior descending coronary artery, while the other end was left outside the body for later use. The heart was placed back into the chest cavity, the air in the chest cavity was emptied, and the chest cavity was closed. 30 min after ligation, the nylon thread was carefully removed for reperfusion. Compared with the normal lead II electrocardiogram (ECG-II), ST segment elevation in ECG-II by 0.1 mV or more 30 min after coronary artery ligation was regarded as successful ischemia.

[4] = tested on: rat myocardial infarction model (coronary ligation 30 min, reperfusion); experiment: Myocardial infarction model: myocardial enzyme LDH in serum; format: in vivo; conditions: isosorbide mononitrate injection i.v. 1 mg/kg
Experimental: as §1, with “ischemia. […] Blood was collected from the rats through the abdominal aorta and centrifuged at 3000 rpm×10 min at 4° C., and the upper serum was taken to determine LDH by enzyme-linked immunosorbent assay.” for “ischemia.”

[5] = tested on: cisplatin-induced nephrotoxicity in SD rats; experiment: Cisplatin-induced nephrotoxicity in SD rats: blood creatinine and urea nitrogen; format: in vivo, rat; conditions: for Creatinine / Urea nitrogen: whole blood day 5, individual rats
Experimental: Healthy male SPF grade SD rats (body weight 250-300 g) were selected. Control group: PBS […] Cisplatin+compound B group: 5 mg/kg i.p.+compound B at 200 mg/kg i.p., with compound B being administered 30 min prior to cisplatin administration Cisplatin+amifostine group: 5 mg/kg i.p.+AMI at 200 mg/kg i.p., with AMI being administered 30 min prior to cisplatin administration Cisplatin+compound A group: 5 mg/kg i.p.+compound A at 800 mg/kg p.o., with compound A being administered 30 min prior to cisplatin administration (1) The SD rats used in the experiment were weighed, labeled, and evenly divided into 5 groups, with 3 SD rats in each group. (2) The compound B, compound A, and AMI groups were respectively administered at the planned concentrations. […] (3) The rats were weighed and recorded daily, and on day 5, blood was taken from the intraocular canthus of the SD rats and placed in an anticoagulant tube.

[6] = tested on: radiation intestinal injury in C57 male mice; experiment: Protective effect on radiation intestinal injury (HE staining of small intestine); format: in vivo; conditions: 517 mpk i.p. 30 min before 16 Gy abdominal irradiation; fifth day
Experimental: (§2) C57 male mice were randomly divided into 4 groups, namely a blank control group, an irradiation group, a compound B (TFA) irradiation group, and an AMI irradiation group, respectively. The mode of administration for each group was an intraperitoneal injection, 30 min before irradiation. The dosage of administration was 517 mpk, and the abdominal irradiation dose was 16 Gy. On the fifth day, the small intestine tissue was taken for HE staining.

[7] = tested on: radiation lung injury in C57 male mice; experiment: Protective effect on radiation lung injury (HE staining of lung); format: in vivo; conditions: 517 mpk i.p. 30 min before 17 Gy right lung irradiation; months 2, 4, 6
Experimental: as §2, with “the” for “the abdominal”, “dose to the right lung” for “dose”, “17” for “16”, “[…] Lung tissues were taken at months 2, 4, and 6 for HE staining” for “staining.”

[8] = Body weight of cisplatin-induced SD rats; format: in vivo, rat
Experimental: Healthy male SPF grade SD rats (body weight 250-300 g) were selected. Cisplatin+compound B group: 5 mg/kg i.p.+compound B at 200 mg/kg i.p., with compound B being administered 30 min prior to cisplatin administration Cisplatin+amifostine group: 5 mg/kg i.p.+AMI at 200 mg/kg i.p., with AMI being administered 30 min prior to cisplatin administration Cisplatin+compound A group: 5 mg/kg i.p.+compound A at 800 mg/kg p.o., with compound A being administered 30 min prior to cisplatin administration (1) The SD rats used in the experiment were weighed, labeled, and evenly divided into 5 groups, with 3 SD rats in each group. (2) The compound B, compound A, and AMI groups were respectively administered at the planned concentrations. […] (3) The rats were weighed and recorded daily, and on day 5, blood was taken from the intraocular canthus of the SD rats and placed in an anticoagulant tube.

[9] = Example 2 group F: edaravone 3 mg/kg i.v. before reperfusion
[10] = Example 2 group G: amifostine 100 mg/kg i.p. 5 min before reperfusion
[11] = amifostine 200 mg/kg i.p. 30 min prior to cisplatin 5 mg/kg i.p.

CC1=NN(c2ccccc2)C(=O)C1 [edaravone, reference compound]
% Behavioral improvement [1, 9]: 46.99%
Neurological function score After modeling [1, 9]: 1 (4×) and 2 and 3
% Improvement of cerebral infarction area [2, 9]: 58.85% and 58.95%
Cerebral infarction area [2, 9]: 0 mm^3 (2×) and 10.31 mm^3 and 45.35 mm^3 and 220.66 mm^3 and 17.11 mm^3

O=[N+]([O-])O[C@@H]1CO[C@H]2[C@@H]1OC[C@@H]2O [Isosorbide mononitrate injection, Isosorbide mononitrate, reference compound]
Improvement rate (%) of myocardial infarction range ([3]; compared with model group): 25.5%
Infarction range (%) ([3]; x ± s, n = 10): 30.1 ± 6.7 %
Improvement rate (%) of LDH ([4]; compared with model group): 22.4%
LDH ([4]; serum, x ± s, n = 10): 1472.7 ± 454.5 U/L

NCCCNCCSP(=O)(O)O [amifostine, reference compound]
% Behavioral improvement [1, 10]: 29.32%
Neurological function score After modeling [1, 10]: 2 (2×) and 1 (2×) and 3 (2×)
% Improvement of cerebral infarction area [2, 10]: 23.24%
Cerebral infarction area [2, 10]: 58.88 mm^3 and 20.71 mm^3 and 0 mm^3 and 244.96 mm^3 and 204.11 mm^3 and 20.31 mm^3
Effect on cisplatin-induced increase of blood creatinine and urea nitrogen (in words) ([5]; 30 min prior to cisplatin 5 mg/kg i.p.: compound B 200 mg/kg i.p., compound A 800 mg/kg p.o., amifostine 200 mg/kg i.p., day 5): significantly reduce the increased blood creatinine and urea nitrogen levels
Creatinine [5, 11]: 19.8 µmol/L and 38.9 µmol/L and 21.9 µmol/L
Urea nitrogen [5, 11]: 5.51 mmol/L and 5.34 mmol/L and 5.49 mmol/L
Changes in the intestinal villi structure (HE staining) [6]: milder than that in the irradiation group
Inflammatory cell infiltration / radiation pneumonitis in lung (HE staining) [7]: could partially relieve the inflammatory cell infiltration and reduce the occurrence of radiation pneumonitis
Change in body weight of cisplatin-induced SD rats ([8]; 30 min prior to cisplatin 5 mg/kg i.p.: compound B 200 mg/kg i.p., compound A 800 mg/kg p.o., amifostine 200 mg/kg i.p., weighed daily): the degree of decrease was significantly better than that of the cisplatin group

[NH2][Pt]([NH2])([Cl])[Cl] [CDDP, cisplatin, reference compound]
Creatinine ([5]; cisplatin alone 5 mg/kg i.p.): 58.6 µmol/L and 54.1 µmol/L and 78 µmol/L
Urea nitrogen ([5]; cisplatin alone 5 mg/kg i.p.): 18.70 mmol/L and 7.81 mmol/L and 12.9 mmol/L
Change in body weight ([8]; cisplatin alone 5 mg/kg i.p.): the body weight dropped significantly
